From ChEMBL document CHEMBL1201862, “PubChem BioAssay data set” (2004)
Activity calls are given as the source filed them.

Tests used:
[1] = molecular target: G-protein coupled receptor 55 (Homo sapiens, UniProt Q9Y2T6); assay: selective activators of receptor GPR55 – imaging, U2OS cells, beta-arrestin-GFP redistribution, primary screen (AID 1961); format: functional
[2] = test system: Streptococcus; assay: GAS UMAA2166 growth inhibition – luminescence, BacTiterGlo, counter-screen for streptokinase expression inhibitor project, dose response (AID 1915); format: functional, organism-based;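 also: potency for reduction of bacterial viability or growth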
[3] = molecular target: T1, X-box-binding protein 1 (Homo sapiens, UniProt P17861); format: functional, Cricetulus griseus;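 also: confirmatory dose-response counter-screen serving a CHOP assay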
T1 sequence (P17861 whole entry): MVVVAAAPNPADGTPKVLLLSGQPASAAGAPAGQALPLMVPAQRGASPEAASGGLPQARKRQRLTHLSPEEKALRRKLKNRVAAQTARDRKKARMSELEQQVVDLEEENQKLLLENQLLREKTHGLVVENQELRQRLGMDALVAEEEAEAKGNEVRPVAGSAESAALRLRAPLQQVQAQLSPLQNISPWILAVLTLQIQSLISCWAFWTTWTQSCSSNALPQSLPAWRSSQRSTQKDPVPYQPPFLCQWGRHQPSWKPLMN

[4] = test system: Streptococcus sp. 'group A'; assay: Streptococcus pyogenes SK(-)GAS viability under kanamycin – luminescence, BacTiterGlo, confirmation, counter-screen for streptokinase expression inhibitor project, dose response (AID 1900); format: functional, organism-based
[5] = molecular target: T2, Streptokinase A (Streptococcus pyogenes serotype M1, UniProt P10520); assay: viability-normalized secreted streptokinase activity reduction – plasminogen activation absorbance, OD405, dose response (AID 1914); format: functional, Streptococcus pyogenes M1 GAS;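 also: secreted streptokinase activity via plasminogen activation per viability signal from cell pellet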
T2 sequence (P10520 whole entry): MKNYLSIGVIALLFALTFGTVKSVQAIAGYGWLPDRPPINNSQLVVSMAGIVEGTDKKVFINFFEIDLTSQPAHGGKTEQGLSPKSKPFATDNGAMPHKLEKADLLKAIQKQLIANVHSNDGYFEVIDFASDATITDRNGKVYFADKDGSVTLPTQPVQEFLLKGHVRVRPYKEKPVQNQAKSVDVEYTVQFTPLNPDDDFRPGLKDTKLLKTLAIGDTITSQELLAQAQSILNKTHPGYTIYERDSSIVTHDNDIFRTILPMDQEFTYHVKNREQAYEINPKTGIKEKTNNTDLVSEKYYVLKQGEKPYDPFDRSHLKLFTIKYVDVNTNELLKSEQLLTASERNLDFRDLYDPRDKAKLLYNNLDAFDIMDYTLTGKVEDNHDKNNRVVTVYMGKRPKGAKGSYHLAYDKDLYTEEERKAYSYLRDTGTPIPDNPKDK

[6] = A cytotoxicity screen of small molecule inhibitors of the PhoP region in Salmonella typhi identified in the primary screen. [Related pubchem assays: 1850, 1864, 1985 ]; format: functional
[7] = molecular target: T3, Replicative DNA helicase DnaB (Mycobacterium tuberculosis, UniProt P9WMR3); assay: DnaB intein splicing inhibitors, dose response, biochemical, cell-free fluorescence (AID 449749); format: functional
T3 sequence (P9WMR3 whole entry): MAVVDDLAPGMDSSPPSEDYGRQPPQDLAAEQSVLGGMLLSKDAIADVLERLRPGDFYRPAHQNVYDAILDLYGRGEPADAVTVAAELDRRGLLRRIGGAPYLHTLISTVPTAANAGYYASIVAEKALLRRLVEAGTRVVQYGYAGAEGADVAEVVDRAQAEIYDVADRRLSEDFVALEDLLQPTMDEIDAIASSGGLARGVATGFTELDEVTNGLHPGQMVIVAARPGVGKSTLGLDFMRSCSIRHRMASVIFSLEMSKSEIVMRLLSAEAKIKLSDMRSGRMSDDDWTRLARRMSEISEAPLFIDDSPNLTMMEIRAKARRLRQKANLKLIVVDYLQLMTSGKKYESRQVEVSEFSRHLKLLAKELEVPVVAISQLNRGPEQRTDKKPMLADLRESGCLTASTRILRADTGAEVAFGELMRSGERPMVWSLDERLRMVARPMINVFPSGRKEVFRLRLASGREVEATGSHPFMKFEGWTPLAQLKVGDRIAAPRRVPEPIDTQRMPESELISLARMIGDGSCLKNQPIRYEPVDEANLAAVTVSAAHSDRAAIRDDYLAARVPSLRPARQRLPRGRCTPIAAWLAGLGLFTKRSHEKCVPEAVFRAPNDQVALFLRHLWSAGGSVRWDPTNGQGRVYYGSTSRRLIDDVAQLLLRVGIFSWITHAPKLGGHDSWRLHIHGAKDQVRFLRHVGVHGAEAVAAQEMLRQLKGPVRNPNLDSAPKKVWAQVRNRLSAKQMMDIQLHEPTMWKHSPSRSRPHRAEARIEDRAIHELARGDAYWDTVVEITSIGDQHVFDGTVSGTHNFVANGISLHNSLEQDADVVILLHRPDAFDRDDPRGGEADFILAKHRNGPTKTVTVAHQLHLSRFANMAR

[8] = molecular target: T4, Protein RecA (Mycobacterium tuberculosis, UniProt P9WHJ3); assay: Fluorescence Cell-Free Homogeneous Dose Retest to Identify Inhibitors of RecA-Intein Splicing Activity. [Related pubchem assays (depositor defined):AID2097, AID2223, AID489010, AID492950]; format: functional
T4 sequence (P9WHJ3 whole entry): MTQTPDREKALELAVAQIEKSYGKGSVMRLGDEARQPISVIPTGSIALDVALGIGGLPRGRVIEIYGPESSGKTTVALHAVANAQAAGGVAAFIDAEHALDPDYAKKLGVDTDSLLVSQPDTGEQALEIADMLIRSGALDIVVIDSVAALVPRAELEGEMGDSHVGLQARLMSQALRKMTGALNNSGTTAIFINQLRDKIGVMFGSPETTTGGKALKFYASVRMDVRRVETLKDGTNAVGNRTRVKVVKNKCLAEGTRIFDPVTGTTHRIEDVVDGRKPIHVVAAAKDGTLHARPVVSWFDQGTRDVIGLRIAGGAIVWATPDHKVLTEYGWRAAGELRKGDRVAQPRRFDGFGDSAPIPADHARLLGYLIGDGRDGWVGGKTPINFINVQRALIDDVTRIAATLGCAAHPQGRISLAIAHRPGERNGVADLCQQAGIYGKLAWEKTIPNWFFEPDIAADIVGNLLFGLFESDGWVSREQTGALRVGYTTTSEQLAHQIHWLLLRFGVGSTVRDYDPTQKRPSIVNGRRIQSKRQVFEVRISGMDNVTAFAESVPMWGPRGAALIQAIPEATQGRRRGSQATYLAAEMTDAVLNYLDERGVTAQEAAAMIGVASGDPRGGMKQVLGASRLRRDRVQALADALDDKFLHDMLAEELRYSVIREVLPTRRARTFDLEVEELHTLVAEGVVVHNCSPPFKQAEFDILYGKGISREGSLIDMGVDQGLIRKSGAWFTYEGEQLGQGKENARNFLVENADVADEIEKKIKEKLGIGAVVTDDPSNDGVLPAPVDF

[9] = molecular target: T5, Dual specificity protein phosphatase 6 (Rattus norvegicus, UniProt Q64346); format: functional
T5 sequence (Q64346 whole entry): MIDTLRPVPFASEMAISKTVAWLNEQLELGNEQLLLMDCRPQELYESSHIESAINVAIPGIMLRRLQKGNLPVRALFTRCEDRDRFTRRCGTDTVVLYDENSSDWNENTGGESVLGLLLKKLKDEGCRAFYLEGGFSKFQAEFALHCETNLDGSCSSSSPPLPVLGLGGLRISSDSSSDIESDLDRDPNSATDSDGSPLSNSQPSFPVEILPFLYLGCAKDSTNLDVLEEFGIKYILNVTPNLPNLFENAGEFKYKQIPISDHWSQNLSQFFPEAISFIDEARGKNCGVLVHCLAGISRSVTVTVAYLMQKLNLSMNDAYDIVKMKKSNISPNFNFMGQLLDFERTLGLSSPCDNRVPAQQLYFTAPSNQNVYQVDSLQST

[10] = molecular target: T6, Tyrosine-protein phosphatase non-receptor type 7 (Homo sapiens, UniProt P35236); format: functional
T6 sequence (P35236 whole entry): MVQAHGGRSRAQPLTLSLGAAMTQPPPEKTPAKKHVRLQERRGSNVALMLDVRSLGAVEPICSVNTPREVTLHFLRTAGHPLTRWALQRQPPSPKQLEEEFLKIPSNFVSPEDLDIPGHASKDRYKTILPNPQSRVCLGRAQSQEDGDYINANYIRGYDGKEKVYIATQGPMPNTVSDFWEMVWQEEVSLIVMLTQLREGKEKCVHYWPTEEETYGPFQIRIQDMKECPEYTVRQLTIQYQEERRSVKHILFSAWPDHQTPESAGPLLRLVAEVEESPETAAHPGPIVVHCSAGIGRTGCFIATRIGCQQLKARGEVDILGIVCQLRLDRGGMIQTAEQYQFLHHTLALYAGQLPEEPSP

[11] = molecular target: T5, Dual specificity protein phosphatase 6
[12] = molecular target: Glyceraldehyde-3-phosphate dehydrogenase (Homo sapiens, UniProt P04406)
[13] = molecular target: T7, NACHT, LRR and PYD domains-containing protein 1 (Homo sapiens, UniProt Q9C000); assay: NALP1 inhibitors in yeast, dose response, luminescent (AID 488860); format: functional
T7 sequence (Q9C000 whole entry): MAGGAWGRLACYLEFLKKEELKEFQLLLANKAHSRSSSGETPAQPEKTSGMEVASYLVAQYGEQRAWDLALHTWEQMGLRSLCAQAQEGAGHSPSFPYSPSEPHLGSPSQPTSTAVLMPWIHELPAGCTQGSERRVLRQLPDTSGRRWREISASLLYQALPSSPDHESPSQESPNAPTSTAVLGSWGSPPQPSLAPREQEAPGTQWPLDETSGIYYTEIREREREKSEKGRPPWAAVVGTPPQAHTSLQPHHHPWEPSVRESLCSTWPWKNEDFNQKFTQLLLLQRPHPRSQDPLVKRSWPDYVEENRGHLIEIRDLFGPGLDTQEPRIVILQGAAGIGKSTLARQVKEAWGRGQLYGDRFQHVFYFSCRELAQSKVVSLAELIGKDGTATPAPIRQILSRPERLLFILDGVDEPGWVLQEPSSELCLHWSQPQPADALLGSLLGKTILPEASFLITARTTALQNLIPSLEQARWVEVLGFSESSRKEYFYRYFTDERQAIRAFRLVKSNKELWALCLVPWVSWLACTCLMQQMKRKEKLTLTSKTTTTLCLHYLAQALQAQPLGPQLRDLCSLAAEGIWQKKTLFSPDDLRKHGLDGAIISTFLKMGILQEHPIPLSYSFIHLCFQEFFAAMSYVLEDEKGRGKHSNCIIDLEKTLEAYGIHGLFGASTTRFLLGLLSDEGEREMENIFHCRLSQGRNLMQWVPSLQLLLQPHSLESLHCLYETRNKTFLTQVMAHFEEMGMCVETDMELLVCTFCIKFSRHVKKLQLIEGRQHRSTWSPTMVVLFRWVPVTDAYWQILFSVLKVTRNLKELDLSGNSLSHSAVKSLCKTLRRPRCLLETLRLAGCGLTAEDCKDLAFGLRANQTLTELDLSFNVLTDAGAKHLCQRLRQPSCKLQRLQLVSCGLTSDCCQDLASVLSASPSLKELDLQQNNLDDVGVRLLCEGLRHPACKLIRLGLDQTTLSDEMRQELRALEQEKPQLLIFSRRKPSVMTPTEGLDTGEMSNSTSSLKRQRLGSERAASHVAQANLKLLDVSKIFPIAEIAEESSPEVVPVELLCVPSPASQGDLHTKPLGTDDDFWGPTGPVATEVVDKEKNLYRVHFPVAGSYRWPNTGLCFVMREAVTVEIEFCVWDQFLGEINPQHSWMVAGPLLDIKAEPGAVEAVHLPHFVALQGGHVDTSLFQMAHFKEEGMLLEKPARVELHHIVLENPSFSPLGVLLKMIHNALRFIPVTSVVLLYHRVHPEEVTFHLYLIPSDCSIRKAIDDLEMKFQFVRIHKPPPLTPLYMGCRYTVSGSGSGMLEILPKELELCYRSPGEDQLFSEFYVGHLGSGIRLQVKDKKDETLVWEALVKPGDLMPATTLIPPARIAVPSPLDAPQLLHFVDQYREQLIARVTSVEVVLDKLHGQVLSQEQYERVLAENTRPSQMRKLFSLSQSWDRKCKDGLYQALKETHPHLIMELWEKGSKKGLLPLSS

[14] = test system: Saccharomyces cerevisiae; assay: S. cerevisiae Caspase-1/ASC signal blockers IC50, NALP1 inhibitor project selectivity test (AID 488863); format: functional, organism-based
[15] = Trypanosoma cruzi growth suppression in host cells – NIH3T3 host cells, beta-gal luminescence, confirmation (AID 2044); format: functional, cell-based;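 also: intracellular parasites grown in NIH/3T3 mouse fibroblasts as host cells; luminescent beta-galactosidase reporter signal from transgenic T. cruzi replicating inside host cells; inhibitors lower the luminescence signal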
[16] = NIH3T3 cell viability loss – ATP luminescence, mouse fibroblasts, counter-screen, dose response (AID 2010); format: functional, cell-based;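 also: cells exposed to compound for about 90 hours before reading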

Sequence of G-protein coupled receptor 55 (Q9Y2T6 whole entry): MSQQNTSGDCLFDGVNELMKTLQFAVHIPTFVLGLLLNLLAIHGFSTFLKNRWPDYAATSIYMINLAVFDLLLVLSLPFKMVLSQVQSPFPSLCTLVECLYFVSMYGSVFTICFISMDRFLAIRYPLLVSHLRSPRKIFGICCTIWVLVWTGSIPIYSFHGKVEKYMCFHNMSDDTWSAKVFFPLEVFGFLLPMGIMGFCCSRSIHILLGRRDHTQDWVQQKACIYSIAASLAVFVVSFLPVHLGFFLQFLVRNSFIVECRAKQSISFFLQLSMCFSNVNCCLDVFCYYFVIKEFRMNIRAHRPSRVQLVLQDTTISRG
Sequence of Glyceraldehyde-3-phosphate dehydrogenase (P04406 whole entry, the tested form may be a part): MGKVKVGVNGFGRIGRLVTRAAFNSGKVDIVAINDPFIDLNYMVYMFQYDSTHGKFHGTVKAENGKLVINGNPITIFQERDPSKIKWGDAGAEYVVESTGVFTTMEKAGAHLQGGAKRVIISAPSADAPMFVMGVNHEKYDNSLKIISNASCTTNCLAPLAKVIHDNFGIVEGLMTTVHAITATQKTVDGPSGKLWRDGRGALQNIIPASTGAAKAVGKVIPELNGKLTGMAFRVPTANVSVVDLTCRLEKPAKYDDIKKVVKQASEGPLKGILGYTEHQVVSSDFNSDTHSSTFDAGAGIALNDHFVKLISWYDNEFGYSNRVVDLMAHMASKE

In the case of `O=C(c1ccc2c(c1)N(Cc1ccccc1F)C(=O)c1ccccc1S2(=O)=O)N1CCCC1`, the EC50 [1] is reported as > 32 µM (inactive).
In the case of `C=CCn1c(COc2ccccc2)nnc1SC(C)C(=O)N/N=C/c1cc(Cl)ccc1O` (centres undefined), the EC50 [2] is reported as 8.01 µM (active), the “Absolute IC50 (XBP1)” value [3] is reported as 10 µM and the EC50 [4] is reported as 2.77 µM (active). The EC50 [5] was > 150 µM (not active).
For `O=C(CSc1nnc(-c2cccnc2)n1Cc1ccco1)c1ccc2ccccc2c1`, the EC50 [6] was > 50 µM (active).
In the case of `COc1ccc(C=C(c2nc3ccccc3s2)c2nc3ccccc3s2)cc1O`, the AC50 [7] is reported as > 380 µM (inactive), the EC50 [8] is reported as 7.08 µM (active) and the EC50 [1] is reported as 3.05 µM (active).
In the case of `Cc1cc(NC(=O)/C=C/c2cccs2)no1`, the IC50 [9] is reported as > 100 µM (inactive), the IC50 [10] is reported as > 100 µM (not active) and the IC50 [11] is reported as > 100 µM (inactive). The IC50 [12] was 62.6 µM (active).
In the case of `CCOc1ccccc1N1CCN(C(=O)CCCc2nc3ccccc3s2)CC1`, the IC50 [13] is reported as 36.3 µM (active) and the IC50 [14] is reported as > 100 µM (inactive).
In the case of `Cc1cc(N=Nc2ccccc2)c(NCC(O)C(O)C(O)CO)cc1C` (centres undefined), the EC50 [6] is reported as > 50 µM (active).
With `Cc1ccc(/C=C2\SC(=S)N(c3cccnc3)C2=O)o1` the EC50 [15] was 2.36 µM (active), the EC50 [6] was > 50 µM (active) and the EC50 [16] was > 60 µM (not active).
